# Values quoted from earlier work as cited in US8481060B2, “Melt-coated pharmaceutical composition with fast release” (Losan Pharma GmbH, priority 2008, dated 2013).
# Conditions: taste-masking compound (excipient)
row,HLB,Compound
1,−7,CCCCCCCCCCCCCCCCCCCC(=O)O [arachinic acid]
2,−6,CCCCCCCCCCCCCCCCC(=O)O [margaric acid]
3,−6,CCCCCCCCCCCCCCCCCCC(=O)O [nonadecane acid]

# Continued, compound first:
row,Compound,HLB
1,CCCCCCCCCCCCCCCCCCCCCC(=O)O [behenic acid],−8
2,CCCCCCCCCCCCCCCC(=O)O [palmitinic acid],−5
3,CCCCCCCCCCCCCCCCCC(=O)O [stearic acid],−6
